What was measured:
[1] = PK in the blood of infected Pf/SCID mice; assay type: in vivo, mouse
Description: Peripheral blood samples (25 μl) were taken at different times (0.25, 0.5, 1, 2, 4, 6, 8 and 23 h), mixed with 25 μl of H2O Mili-Q and immediately frozen on dry ice. The frozen samples were stored at −80 °C until analysis. Vehicle-treated mice experienced the same blood-sampling regimen. Blood samples were processed by liquid–liquid extraction by mixing 10 μl diluted blood with 180 μl AcN:MeOH (80:20; v-v) mixture. Quantitative analysis by Liquid chromatography-tandem mass spectrometry (LC-MS/MS) was performed using UPLC (Waters) and Sciex API4000. The lower limit of quantification in this assay was 0.005 μg ml^−1.

Dd2 bc-1 ELQ-300 = assay: [3H]-hypoxanthine incorporation assay, Dd2 bc-1 ELQ-300 resistant; assay type: cell-based, Plasmodium falciparum; settings: Plasmodium falciparum, DD2
Description: (§1) Supplementary Table 3: Compound 9 and 12 retain their activity against Pf strains harbouring mutations to novel antimalarial agents in clinical development. Compound 9 and 12 were tested for their antiplasmodial activity against a panel of Pf strains known to harbour mutations conferring resistance to novel agents under clinical development. Parasite growth inhibition is measured using the [3H]-hypoxanthine incorporation assay. IC50s are established for each strain (n ≥2) and compared to the IC50 of Dd2 (standard pan-resistant […]

Dd2 PI4K Cpd 1 = assay: [3H]-hypoxanthine incorporation assay, Dd2 PI4K Cpd 1 resistant; assay type: cell-based; settings: Plasmodium falciparum
Description: as §1

Dd2 DHODH DSM265 = assay: [3H]-hypoxanthine incorporation assay, Dd2 DHODH DSM265 resistant; assay type: cell-based; settings: Plasmodium falciparum
Description: as §1

PfATP4 Cpd 2 = assay: [3H]-hypoxanthine incorporation assay, PfATP4 Cpd 2 resistant; assay type: cell-based; settings: Plasmodium falciparum
Description: as §1

PfATP4 Cpd 3 = assay: [3H]-hypoxanthine incorporation assay, PfATP4 Cpd 3 resistant; assay type: cell-based; settings: Plasmodium falciparum
Description: as §1

[2] = Acute anaesthetized guinea pig cardiovascular (CVS) model, compound 12; assay type: in vivo
Description: Male Dunkin Hartley guinea pigs (n=6 per group; 342–401 g; 4–5 weeks old; Charles River Laboratories, L’Arbresle, Cedex) were anaesthetized with sodium pentobarbitone (60 mg kg^−1 intraperitoneally followed by 6 mg kg^−1 h^−1 i.v. (jugular) for maintenance) and mechanically ventilated. Animals were surgically prepared for the measurement of haemodynamic (blood pressure, heart rate and contractility (including left ventricular pressure)) and electrocardiographic (ECG)-derived parameters (QTcB, PR interval and QRS duration). Briefly, catheters were introduced into a carotid artery and a jugular vein for the measurement of arterial blood pressure and administration of the test item, respectively. Needle electrodes were placed subcutaneously in a lead II position for ECG recording. A fluid-filled catheter was introduced into the left ventricle via the opposite carotid artery for left ventricular pressure measurement.
Animals received two consecutive i.v. infusions of either vehicle (group 1; 40% v/v dimethylacetamide/20% v/v polyethylene glycol 400/17% w/v hydroxyl propyl beta cyclodextrin (HPβCD/kleptose) in water for injection) or compound 12 at 10 or 30 mg kg^−1 (group 2). Each infusion lasted for 15 min at a dose volume of 3 ml kg^−1 (rate of 0.2 ml kg^−1 min^−1). Animals were monitored for a further 30-min washout period. Blood samples were taken at 5, 10 and 15 min after the start of each infusion and at 5, 10, 20 and 30 min during the washout phase.
Following a stabilization period, haemodynamic and ECG parameters were measured (using HEM software, version 4.3, Notocord Systems) at 10 and 5 min before administration (mean of measurements obtained at these time points=baseline; T0), and 2.5, 5, 10 and 15 min after the start of each i.v. infusion of compound 12 or vehicle and 5, 10, 20 and 30 min after the end of the second infusion. A detailed description of the model, its background and validation has been described earlier.
All parameters were analysed statistically using SAS software. Baseline values were defined as mean of measurments taken 10 or 5 min before dosing. For each parameter, homogeneity of baseline values (T0) between the two groups were tested using a two-tailed Student’s t-test. Changes from baseline were assessed using a two-way analysis of variance (group and time) with repeated measurements over the time and group × time interaction.
Anaesthetised Guinea Pig Cardiovascular toxicity study for compound 12. Group mean ±SEM data are presented in Supplementary Fig. 16a to 16l. Mean ± standard error plasma exposure data are illustrated in Supplementary Fig. 16m. The mean of the two control recording periods was used as a baseline value. Administration of vehicle produced the expected level of variability in cardiovascular parameters over the time course of this study.
This was considered within acceptable ranges for vehicle data. Actual changes caused by compound 12 were derived by subtracting the effect of the time-matched vehicle data and are discussed using mean % change from baseline values. All findings reported below achieved statistical significance (P < 0.05), unless indicated as a trend. Isolated incidences of statistical significance, that show no relation to compound effects, were not considered of […]
Blood pressure, LVP and heart rate effect: Following i.v. administration of compound 12 at 10 mg/kg, the following observations were noted:
- A 15% decrease in dP/dtmax (an index of cardiac contractility).
As the dose increased to 30 mg/kg, the following effects were observed:
- A 8% decrease in heart rate (HR), - A 10% decrease in left ventricular systolic pressure (LVsys), - A 27% decrease in dP/dtmax.
There was evidence of recovery for dP/dtmax during the 30 minutes wash-out period.
Despite attaining statistical significance, the magnitude of the effects on dP/dtmax at […]

[3] = Plasma protein binding, dog
[4] = Plasma protein binding, mouse
[5] = Plasma protein binding, guinea pig
[6] = system: Pf male and female gametes; assay: Pf male and female dual gamete assay; settings: Plasmodium falciparum, read-out: inhibition in Pf male and female dual gamete assay
Dd2-6R F4 D4 = assay: SYBR green growth assay, Dd2-6R F4 D4; settings: Plasmodium falciparum
Description: Assays were carried out in 384-well format with three technical replicates within an assay day and biological replicates carried out on three different assay days to assign a final EC50.
The drug was then washed off and the parasites were allowed to recover in normal growth media.

For `Cc1nc(Nc2ncc(N3CCN(C)[C@H](C)C3)c(Nc3cc(C)n(C)n3)n2)cc(C2CC2)c1F` [compound 12, (R)-N2-(4-cyclopropyl-5-fluoro-6-methylpyridin-2-yl)-N4-(1,5-dimethyl-1H-pyrazol-3-yl)-5-(3,4-dimethylpiperazin-1-yl)pyrimidine-2,4-diamine], which CL/F ([1]; SCID, mouse, whole blood, oral, parent, Fixed) is on record?
The CL/F was 650 mL/min/kg.

And the “Blood Cmin (minimum parasiticidal concentration, MPC)” value ([1]; at 40 mg kg^−1)?
The value was 40 nM.

What about the Ka ([1]; parent, Fixed) of the same compound?
The Ka was 1 h⁻¹.

What about the Ke0 ([1]; parent, Fixed) of the same compound?
The Ke0 was 0.06 h⁻¹.

And the Vc/F ([1]; parent, Fixed)?
The Vc/F was 462 L/kg.

And the IC50 (Dd2 bc-1 ELQ-300)?
Its IC50 is 8.2 nM.

And the IC50 (Dd2 PI4K Cpd 1)?
Its IC50 is 7.1 nM.

What about the IC50 (Dd2 DHODH DSM265) of the same compound?
The IC50 was 6.5 nM.

What about the IC50 (PfATP4 Cpd 2) of the same compound?
Its IC50 is 8.1 nM.

What about the IC50 (PfATP4 Cpd 3) of the same compound?
The IC50 was 10 nM.

And the “PR interval, QRS duration and QTcB interval” value ([2]; 10 mg/kg i.v.)?
The value was “unaffected”.

And the “decrease in dP/dtmax (index of cardiac contractility)” value ([2]; 10 mg/kg i.v., vehicle-corrected mean % change from baseline)?
Its value is 15%.

What about the “decrease in heart rate (HR)” value ([2]; 30 mg/kg i.v.) of the same compound?
Its value is 8%.

And the “decrease in left ventricular systolic pressure (LVsys)” value ([2]; 30 mg/kg i.v.)?
Its value is 10%.

What about the “increase in QTcB” value ([2]; 30 mg/kg i.v.) of the same compound?
Its value is 7%.

What about the “decrease in dP/dtmax” value ([2]; 30 mg/kg i.v., vehicle-corrected mean % change from baseline) of the same compound?
The value was 27%.

What about the “A—plasma Cmax free” value ([2]; guinea pig, 10 mg kg^−1 i.v.) of the same compound?
The value was 90 nM.

And the “Safety margin (A/B)-free Cmax” value ([2]; guinea pig, 10 mg kg^−1 i.v.)?
The value was 10.3.

And the “Summary of clinical signs and effects” value ([2]; guinea pig, 10 mg kg^−1 i.v., NOEL = no observed effect level)?
Its value is “NOEL”.

And the “Peak total plasma concentration” value ([2]; guinea pig, 10 mg/kg i.v.)?
The value was 1.69 ± 0.15 µmol/L.

And the “A—plasma Cmax free” value ([2]; guinea pig, 30 mg kg^−1 i.v.)?
Its value is 280 nM.

What about the “Safety margin (A/B)-free Cmax” value ([2]; guinea pig, 30 mg kg^−1 i.v.) of the same compound?
The value was 32.2.

And the “Summary of clinical signs and effects” value ([2]; guinea pig, 30 mg kg^−1 i.v.)?
The value was “Contractility and QTcB effects”.

And the “Peak total plasma concentration” value ([2]; guinea pig, 30 mg/kg i.v.)?
The value was 5.05 ± 0.64 µmol/L.

What about the NOEL ([2]; guinea pig, i.v.) of the same compound?
Its NOEL is 10 mg/kg.

And the “Plasma protein binding (% free)” value ([3]; Dog)?
Its value is 3.8 % free.

And the fraction unbound ([3]; dog, plasma)?
Its fraction unbound is 0.038.

What about the fraction unbound ([4]; Plasma protein binding (% free)) of the same compound?
The fraction unbound was 0.0055.

What about the fraction unbound ([4]; Plasma protein binding, Plasma fu, fraction unbound) of the same compound?
The fraction unbound was 0.005.

And the “Plasma protein binding (% free)” value ([5]; Guinea pig)?
The value was 5.5 % free.

And the fraction unbound ([5]; guinea pig, plasma)?
The fraction unbound was 0.055.

And the inhibition at 1 µM [6]?
Its inhibition at 1 µM is 16.5 ± 6.3%.

And the IC50 (Dd2-6R F4 D4)?
Its IC50 is 81.6 nM.
